Assay results from patent US20140286892A1, “USE OF A COMPOUND COMPRISING AT LEAST ONE NUCLEOPHILIC FUNCTION FOR CAPTURING CARBONYL COMPOUNDS RESULTING FROM THE REACTION BETWEEN ONE OR MORE COMPOUNDS CONSTITUTING SEBUM AND OZONE” (L'OREAL, priority 2011, published 2014).

Test: Capture of nonanal applied to skin after treatment with the cosmetic composition
Assay type: in vivo
Conditions: composition with 10% by weight APTES, pH 9 (lactic acid), 4 mg per cm^2 on skin, left to dry, then nonanal applied
Protocol: A cosmetic composition containing 10% by weight of APTES sold under the name Dow Corning is prepared. The pH of the composition is brought to 9 by adding lactic acid. The cosmetic composition is then applied to the skin in a proportion of 4 mg per cm^2 over the whole of the body, and then left to dry. Nonanal, which is an aldehyde that can be formed following the action of ozone on sebum, is then applied to the skin. An aqueous cosmetic composition containing 1.4% by weight of active materials of a vinylformamide/vinylformamine copolymer sold under the name Lupamine 9030 by the company BASF is prepared. It is applied to the skin in a proportion of 4 mg per cm^2 over the whole of the body, and then left to dry. Nonanal, which is a compound structurally close to those which are formed following the action of ozone on sebum, is then applied to the skin.

CCO[Si](CCCN)(OCC)OCC [APTES, γ-aminopropyltriethoxysilane]
trapping of nonanal in the skin: trapped
